Laboratory results published in patent publication US20080305066A1, “2-C-Substituted Propane-1,3-Dicarbonyl Compounds and Their Use in Neutralising Malodour” (GIVAUDAN SA, priority 2005, published 2008).

Key:
[1] = Neutralization of propyl mercaptane (headspace GC-MS); settings: 0.25 ml 4 mM test compound + 0.25 ml 4 mM propyl mercaptane in dimethylsulfoxide/H2O 1:1, room temperature, 3 h, vs blank samples
Protocol: A 23×75 mm-headspace vial is charged with 0.25 ml of a 4 mM-solution of the test compound in dimethylsulfoxide/H2O 1:1. One blank sample containing 0.25 ml of dimethylsulfoxide/H2O 1:1 is prepared per 3 test samples. The vials are sealed with a 20 mm-aluminium seal containing a rubber septum. At 15 min-intervals (which is the time of 1 GC-analysis run) 0.25 ml of a 4 mM-solution of propyl mercaptane in dimethylsulfoxide/H2O 1:1 is added to each sample via cannula.
The samples are left at room temperature for 3 h, then submitted to headspace analysis using a headspace auto sampler connected to a GC-MS apparatus. Per sample 250 μl of headspace is injected. The peak areas (MS-ion current) of propyl mercaptane is compared to the averaged value from the blank samples to calculate the reduction of headspace concentration.

[2] = Neutralization of human sweat in aqueous environment, two chamber sample (headspace GC-MS); settings: 5.0 μmol test compound on viscose filter, 16 h at 35° C., vs blank samples; for % Headspace reduction of malodours compounds: 3-mercapto-1-butanol: aqueous 3-mercapto-1-butanol (17 mM) with 3-methyl hexanoic acid (23 mM); for % Headspace reduction of malodours compounds: 3-methyl hexanoic acid: aqueous 3-methyl hexanoic acid (23 mM) with 3-mercapto-1-butanol (17 mM)
Protocol: A two chamber sample was prepared as depicted in FIG. 1. It is composed of the headspace vial (1′) described in example 26 as the outer containment and a standard HPLC-auto sampler vial (2′) as the inner containment. The test compound (5.0 μmol) is absorbed on viscose filter (3′) (applied as CH2Cl2-solution and let evaporate). An amount of 100 ul of an aqueous solution of 3-methyl hexanoic acid (23 mM) and 3-mercapto-1-butanol (17 mM), is placed on the bottom of the inner vial (2′). A screw cap containing the filter (3′) is screwed tightly on the HPLC-vial (2′), which is placed in the headspace vial (1′). The headspace vial is closed with an aluminium seal containing a rubber septum (5′). Blank samples containing an empty filter (3′) and the aqueous solution of 3-methyl hexanoic acid and 3-mercapto-1-butanol in the inner vial as described above are prepared (1 blank per 3 test samples). The samples are left standing for 16 h at 35° C., then submitted to headspace analysis as described in example 26.
The malodourant compounds (3-methyl hexanoic acid and 3-mercapto-1-butanol) diffuse through the filter into the outer volume (6′). Therefore a compound of formula 1 (neutralizing substance) applied on the filter (3′) will reduce the headspace concentration of the sweat malodourants in the outer volume compared to the blank samples.

[3] = Olfactory evaluation against sweat-malodour reconstitution (panel test); settings: 50 μl of 1% solution in ethanol on malodour treated cotton swatch; LMS rating, expert panel of 20 assessors; relative to swatch without test compound
Protocol: An ethanolic solution of axilla-malodour reconstitution is applied on a 1×1 cm cotton swatch (100 ∥l, 0.1% wt/wt), then 50 μl of the test compound (1% solution in ethanol) are dosed to the malodour treated swatches. The malodour intensity is rated on a LMS (labelled magnitude scale) by an expert panel of 20 assessors. The results are then expressed in % reduction relative to malodour of a swatch without adding a test compound.

CCCCCCOC(=O)/C=C/C(=O)OCCCCCC [DHF, Dihexylfumarate, reference compound]
% Headspace Reduction [1]: 5%
% Headspace reduction of malodours compounds: 3-mercapto-1-butanol [2]: 10%
% Headspace reduction of malodours compounds: 3-methyl hexanoic acid [2]: 0%
% Reduction of axilla malodour intensity in panel test [3]: 68%

CCOC(=O)C=C(C(C)=O)C(C)=O [drawing 58]
% Headspace reduction of malodours compounds: 3-mercapto-1-butanol [2]: 100%
% Headspace reduction of malodours compounds: 3-methyl hexanoic acid [2]: 0%

CCOC(=O)C(OCC)C(C(C)=O)C(=O)c1ccccc1 (stereo not shown)
% Headspace Reduction [1]: 22%

CCOC(=O)C=C(C(C)=O)C(C)=O [drawing 38]
% Headspace Reduction [1]: 100%

CCCCCCC/C=C(/C(C)=O)C(=O)OCC [drawing 56]
% Headspace reduction of malodours compounds: 3-mercapto-1-butanol [2]: 35%
% Headspace reduction of malodours compounds: 3-methyl hexanoic acid [2]: 10%

CCOC(=O)C(OCC)C(C(C)=O)C(=O)OCC (stereo not shown) [drawing 59]
% Headspace reduction of malodours compounds: 3-mercapto-1-butanol [2]: 100%
% Headspace reduction of malodours compounds: 3-methyl hexanoic acid [2]: 0%

CCOC(=O)/C=C(\C(C)=O)C(=O)c1ccccc1
% Headspace Reduction [1]: 100%

CCOC(=O)C(O)C(C(=O)OCC)C(=O)c1ccccc1 (stereo not shown)
% Headspace Reduction [1]: 20%

CCOc1cc(C=C(C(C)=O)C(C)=O)ccc1O [drawing 61]
% Headspace reduction of malodours compounds: 3-mercapto-1-butanol [2]: 41%
% Headspace reduction of malodours compounds: 3-methyl hexanoic acid [2]: 9%

CC(=O)C(=CC(C)CCC=C(C)C)C(C)=O (stereo not shown)
% Headspace Reduction [1]: 8%

CCOC(=O)C(O)C(C(C)=O)C(=O)OCC (stereo not shown)
% Headspace Reduction [1]: 62%

CCOC(=O)/C=C(/C(C)=O)C(=O)OCC [drawing 36]
% Headspace Reduction [1]: 100%

CCOc1cc(C=C(C(C)=O)C(C)=O)ccc1O [Example 7]
melting point: 126 to 128 °C

CCCC(=O)/C(=C/C(=O)OCC)C(=O)OCC
% Headspace Reduction [1]: 100%

CCOC(=O)C(OCC)C(C(C)=O)C(=O)OCC (stereo not shown) [drawing 65]
% Reduction of axilla malodour intensity in panel test [3]: 67%

CCCCCCC/C=C(/C(C)=O)C(=O)OCC [drawing 63]
% Reduction of axilla malodour intensity in panel test [3]: 82%

CCOC(=O)/C=C(\C(=O)OCC)C(=O)c1ccccc1 [drawing 60]
% Headspace reduction of malodours compounds: 3-mercapto-1-butanol [2]: 85%
% Headspace reduction of malodours compounds: 3-methyl hexanoic acid [2]: 28%

CCOC(=O)C(O)C(C(C)=O)C(=O)OC(C)(C)C (stereo not shown)
% Headspace Reduction [1]: 45%

CCOC(=O)C(C)=C(C(=O)OCC)C(=O)OCC
% Headspace Reduction [1]: 20%

CCOC(=O)C(OC)C(C(C)=O)C(=O)OCC (stereo not shown)
% Headspace Reduction [1]: 54%

CCOC(=O)/C=C(/C(C)=O)C(=O)OCC [drawing 64]
% Reduction of axilla malodour intensity in panel test [3]: 76%

CCCCCCCC=C(C(=O)OCC)C(=O)OCC [drawing 55]
% Headspace reduction of malodours compounds: 3-mercapto-1-butanol [2]: 22%
% Headspace reduction of malodours compounds: 3-methyl hexanoic acid [2]: 0%

CC(=O)C(=CC(C)C)C(C)=O
% Headspace Reduction [1]: 34%

CCCC(=O)C(C(=O)OCC)C(OCC)C(=O)OCC (stereo not shown)
% Headspace Reduction [1]: 38%

CCOC(=O)C(OCC)C(C(C)=O)C(C)=O (stereo not shown)
% Headspace Reduction [1]: 82%

CCCCCCCC=C(C(=O)OCC)C(=O)OCC [drawing 62]
% Reduction of axilla malodour intensity in panel test [3]: 59%

CCOC(=O)/C=C(\C(=O)OC)C(=O)C(C)(C)C
% Headspace Reduction [1]: 82%

CCOC(=O)C(O)C(C(=O)OC)C(=O)C(C)(C)C (stereo not shown)
% Headspace Reduction [1]: 15%

CCOC(=O)C(OCC)C(C(C)=O)C(=O)OCC (stereo not shown) [drawing 42]
% Headspace Reduction [1]: 64%

CCCC(=O)/C(C(=O)OCC)=C(\O)C(=O)OCC
% Headspace Reduction [1]: 15%

CCOC(=O)/C=C(/C(C)=O)C(=O)OCC [drawing 57]
% Headspace reduction of malodours compounds: 3-mercapto-1-butanol [2]: 98%
% Headspace reduction of malodours compounds: 3-methyl hexanoic acid [2]: 10%

CCOC(=O)/C=C(\C(=O)OCC)C(=O)c1ccccc1 [drawing 50]
% Headspace Reduction [1]: 100%

CCOC(=O)C(OCC)C(C(=O)OCC)C(=O)c1ccccc1 (stereo not shown)
% Headspace Reduction [1]: 10%
